Results published in ChEMBL document CHEMBL1147915, “Carbonic anhydrase inhibitors. Inhibition of isoforms I, II, IV, VA, VII, IX, and XIV with sulfonamides incorporating fructopyranose-thioureido tails” (Bioorg Med Chem Lett, 2007).

Key:
Mus musculus [1] = experiment: Anticonvulsant activity in OF1 mouse at 30 mg/kg, ip after 2 hrs by MES test; format: functional; settings: route intraperitoneal
Mus musculus [2] = experiment: Anticonvulsant activity in OF1 mouse at 50 mg/kg, ip after 2 hrs by MES test; format: functional; settings: route intraperitoneal
Carbonic anhydrase 9 = Carbonic anhydrase 9 (Homo sapiens, UniProt Q16790)
Description: Inhibition of human recombinant CA9 after 15 mins by CO2 hydration stopped flow assay

| Compound | Activity (Mus musculus [1]) [%] | Activity (Mus musculus [2]) [%] | Ki (Carbonic anhydrase 9) [nM] |
| --- | --- | --- | --- |
| O=C1NC(=O)C(c2ccccc2)(c2ccccc2)N1 [PHENYTOIN] | 100 | – | – |
| CC1(C)O[C@@H]2[C@@H](CO[C@@]3(CNC(=S)Nc4ccc(S(=O)(=O)NCc5ccc(S(N)(=O)=O)cc5)cc4F)OC(C)(C)O[C@@H]23)O1 | – | 20 | 11 |
| CC1(C)O[C@@H]2[C@@H](CO[C@@]3(CNC(=S)Nc4ccc(S(N)(=O)=O)cc4Cl)OC(C)(C)O[C@@H]23)O1 | – | 0 | 134 |
| CC1(C)O[C@@H]2[C@@H](CO[C@@]3(CNC(=S)Nc4ccc(S(N)(=O)=O)cc4F)OC(C)(C)O[C@@H]23)O1 | – | 87.5 | 110 |
| NC(=O)N1c2ccccc2C=Cc2ccccc21 [CARBAMAZEPINE] | 100 | – | – |
| CC1(C)O[C@@H]2[C@@H](CO[C@@]3(COS(N)(=O)=O)OC(C)(C)O[C@@H]23)O1 [TOPIRAMATE] | – | 68.75 | – |
| CC1(C)O[C@@H]2[C@@H](CO[C@@]3(CNC(=S)NCCc4ccc(S(N)(=O)=O)cc4)OC(C)(C)O[C@@H]23)O1 | – | 0 | – |
| CC1(C)O[C@@H]2[C@@H](CO[C@@]3(CNC(=S)Nc4ccc(S(=O)(=O)Nc5nnc(S(N)(=O)=O)s5)cc4F)OC(C)(C)O[C@@H]23)O1 | – | 0 | 76 |
| CC1(C)O[C@@H]2[C@@H](CO[C@@]3(CNC(=S)Nc4ccc(S(N)(=O)=O)cc4)OC(C)(C)O[C@@H]23)O1 | – | 0 | 82 |
| CC1(C)O[C@@H]2[C@@H](CO[C@@]3(CNC(=S)Nc4cccc(S(N)(=O)=O)c4)OC(C)(C)O[C@@H]23)O1 | – | 0 | 4500 |
